Paper PMC9866191, “Novel 9-Benzylaminoacridine Derivatives as Dual Inhibitors of Phosphodiesterase 5 and Topoisomerase II for the Treatment of Colon Cancer” (Molecules, 2023)

How the values were obtained:
[1] = target: T1, PDE5A (Homo sapiens, UniProt O76074); test: Phosphodiesterase 5 HTRF cGMP assay; type: biochemical; conditions: for IC50: means ± S.D. (n = 4), read-out: PDE5 IC50; for inhibition at 10 µM: read-out: PDE5 % Inhibition at 10 μM
T1 construct: purchased BPS Bioscience, San Diego, CA, USA
Description: All the synthesized acridine derivatives were tested for their in vitro ability to inhibit PDE5A at a screening dose of 10 µM.
The enzyme activities of phosphodiesterase 5 (PDE5) were measured using an HTRF cGMP assay kit (Cisbio, Codolet, France). […] Afterward, the HTRF reagent (cGMP-d2 and anti-cGMP-cryptate) was added for 1 h at 25 °C, and PDE activity was assayed on an HTRF reader (Tecan Infinite F200 Pro).

[2] = system: CCRF-CEM; test: NCI-60 one-dose screen; type: cell-based; conditions: Homo sapiens, Leukemia panel, single dose 10^−5 M, read-out: Growth inhibition %
[3] = system: ACHN; test: NCI-60 one-dose screen; type: cell-based; conditions: Homo sapiens, Renal Cancer panel, single dose 10^−5 M, read-out: Growth inhibition %
Description: (§1) The newly synthesized compounds were screened for their in vitro anticancer activity at the Developmental Therapeutic Program (DTP) of the National Cancer Institute (NCI). The screening involved a panel of 60 human tumor cell lines consisting of 9 tissue types to screen for potential anti-cancer agents. The primary screening of submitted compounds was performed by testing a single dose (10^−5 M) in the full NCI-60 panel. The detailed % inhibition by the tested compounds against the 60 cell lines is shown in Tables S1–S3 in the Supporting Information.

[4] = system: CAKI-1; test: NCI-60 one-dose screen; type: cell-based; conditions: Homo sapiens; CAKI-1, Renal Cancer panel; single dose 10^−5 M; read-out: Growth inhibition %
Description: as §1

[5] = system: COLO 205; test: NCI-60 one-dose screen; type: cell-based; conditions: Homo sapiens; COLO 205, Colon Cancer panel; single dose 10^−5 M; read-out: Growth inhibition %
Description: as §1

[6] = system: HCC-2998; test: NCI-60 one-dose screen; type: cell-based; conditions: Homo sapiens; HCC-2998, Colon Cancer panel; single dose 10^−5 M; read-out: Growth inhibition %
Description: as §1

[7] = system: HCT-15; test: NCI-60 one-dose screen; type: cell-based; conditions: Homo sapiens; HCT-15, Colon Cancer panel; single dose 10^−5 M; read-out: Growth inhibition %
Description: as §1

[8] = system: K-562; test: NCI-60 one-dose screen; type: cell-based; conditions: Homo sapiens, K562; K-562, Leukemia panel; single dose 10^−5 M; read-out: Growth inhibition %
Description: as §1

[9] = system: KM12; test: NCI-60 one-dose screen; type: cell-based; conditions: Homo sapiens; KM12, Colon Cancer panel; single dose 10^−5 M; read-out: Growth inhibition %
Description: as §1

[10] = system: M14; test: NCI-60 one-dose screen; type: cell-based; conditions: Homo sapiens; M14, Melanoma panel; single dose 10^−5 M; read-out: Growth inhibition %
Description: as §1

[11] = system: MDA-MB-435; test: NCI-60 one-dose screen; type: cell-based; conditions: Homo sapiens; MDA-MB-435, Melanoma panel; single dose 10^−5 M; read-out: Growth inhibition %
Description: as §1

[12] = system: NCI-H522; test: NCI-60 one-dose screen; type: cell-based; conditions: Homo sapiens; NCI-H522, Non-small cell lung panel; single dose 10^−5 M; read-out: Growth inhibition %
Description: as §1

[13] = system: NCI/ADR-RES; test: NCI-60 one-dose screen; type: cell-based; conditions: Homo sapiens, Ovarian Cancer panel, single dose 10^−5 M, read-out: Growth inhibition %
Description: as §1

[14] = system: OVCAR-3; test: NCI-60 one-dose screen; type: cell-based; conditions: Homo sapiens; OVCAR-3, Ovarian Cancer panel; single dose 10^−5 M; read-out: Growth inhibition %
Description: as §1

[15] = system: SF-295; test: NCI-60 one-dose screen; type: cell-based; conditions: Homo sapiens; SF-295, CNS Cancer panel; single dose 10^−5 M; read-out: Growth inhibition %
Description: as §1

[16] = system: SK-MEL-28; test: NCI-60 one-dose screen; type: cell-based; conditions: Homo sapiens; SK-MEL-28, Melanoma panel; single dose 10^−5 M; read-out: Growth inhibition %
Description: as §1

[17] = system: SK-MEL-2; test: NCI-60 one-dose screen; type: cell-based; conditions: Homo sapiens; SK-MEL-2, Melanoma panel; single dose 10^−5 M; read-out: Growth inhibition %
Description: as §1

[18] = system: SK-MEL-5; test: NCI-60 one-dose screen; type: cell-based; conditions: Homo sapiens; SK-MEL-5, Melanoma panel; single dose 10^−5 M; read-out: Growth inhibition %
Description: as §1

[19] = system: SK-OV-3; test: NCI-60 one-dose screen; type: cell-based; conditions: Homo sapiens; SK-OV-3, Ovarian Cancer panel; single dose 10^−5 M; read-out: Growth inhibition %
Description: as §1

[20] = system: SN12C; test: NCI-60 one-dose screen; type: cell-based; conditions: Homo sapiens, Renal Cancer panel, single dose 10^−5 M, read-out: Growth inhibition %
Description: as §1

[21] = system: SNB-75; test: NCI-60 one-dose screen; type: cell-based; conditions: Homo sapiens; SNB-75, CNS Cancer panel; single dose 10^−5 M; read-out: Growth inhibition %
Description: as §1

[22] = system: SR; test: NCI-60 one-dose screen; type: cell-based; conditions: Homo sapiens, Leukemia panel, single dose 10^−5 M, read-out: Growth inhibition %
Description: as §1

[23] = system: SW-620; test: NCI-60 one-dose screen; type: cell-based; conditions: Homo sapiens; SW-620, Colon Cancer panel; single dose 10^−5 M; read-out: Growth inhibition %
Description: as §1

[24] = system: T-47D; test: NCI-60 one-dose screen; type: cell-based; conditions: Homo sapiens, T47D, Breast Cancer panel, single dose 10^−5 M, read-out: Growth inhibition %
Description: as §1

[25] = system: U251; test: NCI-60 one-dose screen; type: cell-based; conditions: Homo sapiens, U-251; U251, CNS Cancer panel; single dose 10^−5 M; read-out: Growth inhibition %
Description: as §1

[26] = system: UACC-257; test: NCI-60 one-dose screen; type: cell-based; conditions: Homo sapiens; UACC-257, Melanoma panel; single dose 10^−5 M; read-out: Growth inhibition %
Description: as §1

[27] = system: SF-268; test: NCI-60 one-dose screen; type: cell-based; conditions: Homo sapiens; SF-268, CNS Cancer panel; single dose 10^−5 M; read-out: Growth inhibition %
[28] = system: LOX IMVI; test: NCI-60 one-dose screen; type: cell-based; conditions: Homo sapiens, Melanoma panel, single dose 10^−5 M, read-out: Growth inhibition %
[29] = system: IGROV1; test: NCI-60 one-dose screen; type: cell-based; conditions: Homo sapiens, IGROV-1; IGROV1, Ovarian Cancer panel; single dose 10^−5 M; read-out: Growth inhibition %

Row | Structure (SMILES) | IC50 [1] [µM] | inhibition at 10 µM [1] [%] | inhibition at 10 µM [2] [%] | inhibition at 10 µM [3] [%] | inhibition at 10 µM [4] [%] | inhibition at 10 µM [5] [%] | inhibition at 10 µM [6] [%] | inhibition at 10 µM [7] [%] | inhibition at 10 µM [8] [%] | inhibition at 10 µM [9] [%] | inhibition at 10 µM [10] [%] | inhibition at 10 µM [11] [%] | inhibition at 10 µM [12] [%] | inhibition at 10 µM [13] [%] | inhibition at 10 µM [14] [%] | inhibition at 10 µM [15] [%] | inhibition at 10 µM [16] [%] | inhibition at 10 µM [17] [%] | inhibition at 10 µM [18] [%] | inhibition at 10 µM [19] [%] | other results
1 | Clc1ccccc1CNc1c2ccccc2nc2ccccc12 [Compound 11, Acridin-9-yl-(2-chlorobenzyl)-amine] | 4.33 ± 2.35 | 87.3 ± 3.68 | 89.3 | 87.8 | 74.8 | 99.5 | 117 | 86.4 | 94.7 | 78 | 81.9 | 72.8 | 71.5 | 76.2 | 46.4 | 78.3 | 49.5 | 44.4 | 58.2 | 45.1 | inhibition at 10 µM [20]: 72.2%; inhibition at 10 µM [21]: 56.9%; inhibition at 10 µM [22]: 99.5%; inhibition at 10 µM [23]: 90.4%; inhibition at 10 µM [24]: 69.5%; inhibition at 10 µM [25]: 76.8%; inhibition at 10 µM [26]: 55.7%; inhibition at 10 µM [27]: 53.4%; inhibition at 10 µM [28]: 95.2%; inhibition at 10 µM [29]: 82.2%
2 | Clc1cccc(CNc2c3ccccc3nc3ccccc23)c1 [Compound 12, Acridin-9-yl-(3-chlorobenzyl)-amine] | 6.29 ± 1.18 | 62.2 ± 4.94 | 81.9 | 84.3 | 71.8 | 99.5 | 154 | 86 | 95 | 59.2 | 64.5 | 53.4 | 58.3 | 73.7 | 42.3 | 79.2 | 33.8 | 22.7 | 33.8 | 36.1 | inhibition at 10 µM [20]: 76.4%; inhibition at 10 µM [21]: 31.3%; inhibition at 10 µM [22]: 104%; inhibition at 10 µM [23]: 88%; inhibition at 10 µM [24]: 59.1%; inhibition at 10 µM [25]: 77.3%; inhibition at 10 µM [26]: 54.6%; inhibition at 10 µM [27]: 39.4%; inhibition at 10 µM [28]: 98.2%; inhibition at 10 µM [29]: 83.5%
